According to patent publication US20120010161A1, “NOVEL AZAPEPTIDE OR AZAPEPTIDOMIMETIC COMPOUNDS INHIBITING BCRP AND/OR P-GP” (CENTRE NATIONAL DE LA RECHERCHE SCIENTIFIQUE, priority 2009, published 2012):
“And” between values parts separate entries of the source, which are not always exact repeats. Equal entries are not always repeated.

Assays:
Format in all cases: cell-based
[1] = molecular target: T1, BCRP/ABCG2 (Homo sapiens, UniProt Q9UNQ0); assay: Flow cytometry: mitoxantrone efflux induced by ABCG2 in transfected HEK-293 cells; details: for inhibition at 2 μM / inhibition at 10 μM: human, HEK-293 cells transfected with ABCG2 (vector pcDNA3.1), probe mitoxantrone (5 μM); for inhibition at 2 μM: 2 μM compound, read-out: BCRP/ABCG2 % efficacy 2 μM; for inhibition at 2 μM / inhibition at 10 μM / IC50 / BCRP/ABCG2 IC50, μM: mitoxantrone efflux, HEK-293 cells; for inhibition at 10 μM: 10 μM compound, three independent experiments, read-out: BCRP/ABCG2 % efficacy 10 μM
T1 construct: expressed in transfected cells; host or cells: HEK-293 transfected with pcDNA3.1-ABCG2
T1 sequence (Q9UNQ0 1-655): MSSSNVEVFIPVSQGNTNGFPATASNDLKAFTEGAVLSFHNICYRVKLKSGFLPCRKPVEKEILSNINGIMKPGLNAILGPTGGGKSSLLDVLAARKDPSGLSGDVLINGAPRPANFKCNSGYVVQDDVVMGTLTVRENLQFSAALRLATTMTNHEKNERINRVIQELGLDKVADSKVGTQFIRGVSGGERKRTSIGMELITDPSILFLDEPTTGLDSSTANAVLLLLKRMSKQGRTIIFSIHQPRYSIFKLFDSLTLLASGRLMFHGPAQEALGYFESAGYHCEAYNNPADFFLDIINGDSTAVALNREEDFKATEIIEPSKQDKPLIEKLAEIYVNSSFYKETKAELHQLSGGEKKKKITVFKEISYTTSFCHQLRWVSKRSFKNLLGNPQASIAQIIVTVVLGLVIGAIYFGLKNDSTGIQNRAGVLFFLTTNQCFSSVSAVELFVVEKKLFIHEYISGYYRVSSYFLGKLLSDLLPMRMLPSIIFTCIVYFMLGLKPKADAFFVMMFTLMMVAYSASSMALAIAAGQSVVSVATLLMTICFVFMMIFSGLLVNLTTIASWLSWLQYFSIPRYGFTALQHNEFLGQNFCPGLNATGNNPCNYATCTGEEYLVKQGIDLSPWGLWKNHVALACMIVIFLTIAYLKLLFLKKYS
From the text: (§1) Cell cultures. The human […] HEK-293 transfected with the vector pcDNA3.1 including or not the gene encoding ABCG2 (Robey, R. W., Honjo, Y., Morisaki, K., Nadjem, T. A., Runge, S., Risbood, M., Poruchynsky, M. S., Bates, S. E. 2003, Br. J. Cancer 89(10) 1971-1978) was used to test the efficacy of the products on ABCG2. The newborn hamster kidney cell line BHK21 either natural (negative control) or transfected with the vector pNUT-MRP/His expressing the gene encoding ABCC1 (Chang, Xiu-Bao, Hou, Yue-Xian, Riordan, John R. 1997, J. Biol. Chem. 272(49) 30962-30968) was used to test the efficacy of the products on ABCC1. The cell line NIH3T3 natural or transfected with the vector pHaMDR1/A expressing ABCB1 (Cardarelli, Carol O., Aksentijevich, Ivan, Pastan, Ira, Gottesman, Michael M. 1995 Cancer Res. 55 1086-1091) was used to test the efficacy of the compounds on ABCB1. The various cell types are cultured according to the protocols described previously (Robey, R. W., Honjo, Y., Morisaki, K., Nadjem, T. A., Runge, S., Risbood, M., Poruchynsky, M. S., Bates, S. E. 2003, Br. J. Cancer 89(10) 1971-1978 for the line HEK293, Chang, Xiu-Bao, Hou, Yue-Xian, Riordan, John R. 1997, J. Biol. Chem. 272(49) 30962-30968 for the line BHK21 and Cardarelli, Carol O., Aksentijevich, Ivan, Pastan, Ira, Gottesman, Michael M. 1995 Cancer Res. 55 1086-1091 for the line NIH3T3).
(§2) FIG. 1 schematically illustrates an efflux of substrate induced by a typical ABC transporter. The substrates S, such as mitoxantrone effluxed with ABCG2 and ABCB1 or daunorubicin effluxed with ABCC1, are accumulated in the cells and expelled by the transporter T, leading to a decrease in intracellular fluorescence. In the case of accumulation of the product, typically by inhibition of the efflux protein, the intracellular fluorescence increases.
(§3) Flow cytometry. Transfected or untransfected HEK-293 and BHK-21 cells are in a first stage placed in contact with substrate (5 μM mitoxantrone or 1 μM daunorubicin depending on the transporter). The substrate is accumulated for 30 minutes at 37° C. in the presence or absence of varied concentrations of the test molecules, at 0.5% of DMSO final. After washing with PBS, the cells are incubated in medium containing the same concentrations of test molecules as previously, for 1 hour at 37° C. The drug intracellular fluorescence is measured with a FACscan flow cytometer (Becton Dickinson, Mountain View, Calif.). The fluorescent substrates are excited at 488 nm; the fluorescence emission of mitoxantrone (MTX) is measured at 650 nm and that of daunorubicin is measured at 530 nm. The efficacy of the test molecules is estimated by means of equation 1:
(§4) % efficacy=100×(FA−FBG)/(FC−FBG),
(§5) in which: • FA corresponds to the intracellular level of substrate measured in the cells overexpressing the transporter T (corresponding to the lowest level of fluorescence in the absence of inhibitor), • FC corresponds to the fluorescence in the control cells not expressing the test transporter. This is thus the maximum accumulation of substrate in the cells), • FBG corresponds to the fluorescence measured in the absence of substrate and in the presence of inhibitor.
(§6) The compounds presented in TABLES 2 to 5 were tested by flow cytometry on mammalian cell lines selectively expressing the efflux proteins ABCG2, ABCB1 or ABCC1, as described previously.
(§7) The mitoxantrone efflux induced by ABCG2 or ABCB1 and the daunorubicin efflux induced by ABCC1 are estimated by flow cytometry, as described previously, at 10 μM of each test compound, and then at 2 μM for the compounds showing at least 80% efficacy at 10 μM. The concentration inducing 50% inhibition (IC50) was estimated for the most efficient aza derivatives. The values are obtained by three independent experiments and were adjusted using the SigmaPlot software.

[2] = molecular target: T2, MRP1/ABCC1 (Homo sapiens, UniProt P33527); assay: Flow cytometry: daunorubicin efflux induced by ABCC1 in transfected BHK21 cells; details: probe daunorubicin (1 μM), 10 μM compound, read-out: MRP1/ABCC1 % efficacy 10 μM
T2 construct: His; expressed in transfected cells; host or cells: BHK21 (newborn hamster kidney) transfected with pNUT-MRP/His
From the text: as §1, with “The various cell types are cultured according to the protocols described previously (Robey, R. W., Honjo, Y., Morisaki, K., Nadjem, T. A., Runge, S., Risbood, M., Poruchynsky, M. S., Bates, S. E. 2003, Br. J. Cancer 89(10) 1971-1978 for the line HEK293, Chang, Xiu-Bao, Hou, Yue-Xian, Riordan, John R. 1997, J. Biol. Chem. 272(49) 30962-30968 for the line BHK21 and Cardarelli, Carol O., Aksentijevich, Ivan, Pastan, Ira, Gottesman, Michael M. 1995 Cancer Res. 55 1086-1091 for the line NIH3T3).” left out
as §2
Flow cytometry. […] The drug intracellular fluorescence is measured with a FACscan flow cytometer (Becton Dickinson, Mountain View, Calif.). The fluorescent substrates are excited at 488 nm; the fluorescence emission of mitoxantrone (MTX) is measured at 650 nm and that of daunorubicin is measured at 530 nm. […]
in which: • FA corresponds to the intracellular level of substrate measured in the cells overexpressing the transporter T (corresponding to the lowest level of fluorescence in the absence of inhibitor), • FC corresponds to the fluorescence in the control cells not expressing the test transporter. […]

[3] = molecular target: T3, P-gp/ABCB1 (Homo sapiens, UniProt P08183); assay: Flow cytometry: mitoxantrone efflux induced by ABCB1 in transfected NIH3T3 cells; details: for inhibition at 10 μM / inhibition at 2 μM: human, NIH3T3 cells transfected with ABCB1 (vector pHaMDR1/A), probe mitoxantrone (5 μM); for inhibition at 10 μM: 10 μM compound, read-out: P-gp/ABCB1 % efficacy 10 μM; for inhibition at 2 μM: 2 μM compound, read-out: P-gp/ABCB1 % efficacy 2 μM
T3 construct: expressed in transfected cells; host or cells: NIH3T3 transfected with pHaMDR1/A
From the text: as §1, §2, §3, §4, §5, §6, §7

T2 sequence (P33527 whole entry): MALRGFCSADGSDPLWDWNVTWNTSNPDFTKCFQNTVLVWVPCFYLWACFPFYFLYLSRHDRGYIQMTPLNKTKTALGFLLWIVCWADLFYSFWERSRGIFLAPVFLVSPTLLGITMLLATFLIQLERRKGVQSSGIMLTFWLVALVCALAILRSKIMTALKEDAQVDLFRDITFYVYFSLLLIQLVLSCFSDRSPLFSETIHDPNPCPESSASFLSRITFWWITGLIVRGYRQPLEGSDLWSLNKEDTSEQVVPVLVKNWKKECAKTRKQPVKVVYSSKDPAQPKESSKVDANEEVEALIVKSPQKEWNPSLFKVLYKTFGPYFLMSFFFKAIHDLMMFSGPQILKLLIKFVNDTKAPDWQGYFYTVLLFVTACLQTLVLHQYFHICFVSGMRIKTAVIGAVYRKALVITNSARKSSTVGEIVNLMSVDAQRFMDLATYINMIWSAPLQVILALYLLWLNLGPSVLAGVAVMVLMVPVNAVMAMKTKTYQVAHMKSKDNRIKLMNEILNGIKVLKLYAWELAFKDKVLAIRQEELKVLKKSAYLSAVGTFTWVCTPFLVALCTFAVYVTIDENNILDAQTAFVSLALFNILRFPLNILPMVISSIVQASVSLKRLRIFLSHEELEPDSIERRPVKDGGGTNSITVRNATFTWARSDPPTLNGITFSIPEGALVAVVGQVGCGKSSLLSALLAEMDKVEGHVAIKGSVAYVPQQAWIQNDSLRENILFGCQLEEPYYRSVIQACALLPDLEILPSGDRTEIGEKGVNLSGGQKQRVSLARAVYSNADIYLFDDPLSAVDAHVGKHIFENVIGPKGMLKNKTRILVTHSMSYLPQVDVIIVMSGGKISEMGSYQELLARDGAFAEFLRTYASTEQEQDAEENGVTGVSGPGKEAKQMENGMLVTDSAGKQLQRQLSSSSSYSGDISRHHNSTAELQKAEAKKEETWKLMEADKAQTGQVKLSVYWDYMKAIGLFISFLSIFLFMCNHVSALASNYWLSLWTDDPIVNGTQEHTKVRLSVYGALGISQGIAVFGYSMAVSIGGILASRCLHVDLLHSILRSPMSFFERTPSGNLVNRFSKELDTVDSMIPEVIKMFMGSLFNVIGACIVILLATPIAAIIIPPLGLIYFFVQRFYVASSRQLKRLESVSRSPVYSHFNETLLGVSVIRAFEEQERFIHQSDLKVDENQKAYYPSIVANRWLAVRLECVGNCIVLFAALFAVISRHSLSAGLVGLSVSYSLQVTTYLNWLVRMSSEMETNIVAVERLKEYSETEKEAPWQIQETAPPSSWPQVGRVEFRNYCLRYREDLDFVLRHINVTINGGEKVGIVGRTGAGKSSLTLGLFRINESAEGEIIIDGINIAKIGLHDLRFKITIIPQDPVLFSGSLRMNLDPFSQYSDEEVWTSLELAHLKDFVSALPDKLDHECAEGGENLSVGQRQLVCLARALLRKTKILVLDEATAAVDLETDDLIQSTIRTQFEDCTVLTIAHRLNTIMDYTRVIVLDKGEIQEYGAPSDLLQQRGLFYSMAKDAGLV
T3 sequence (P08183 whole entry): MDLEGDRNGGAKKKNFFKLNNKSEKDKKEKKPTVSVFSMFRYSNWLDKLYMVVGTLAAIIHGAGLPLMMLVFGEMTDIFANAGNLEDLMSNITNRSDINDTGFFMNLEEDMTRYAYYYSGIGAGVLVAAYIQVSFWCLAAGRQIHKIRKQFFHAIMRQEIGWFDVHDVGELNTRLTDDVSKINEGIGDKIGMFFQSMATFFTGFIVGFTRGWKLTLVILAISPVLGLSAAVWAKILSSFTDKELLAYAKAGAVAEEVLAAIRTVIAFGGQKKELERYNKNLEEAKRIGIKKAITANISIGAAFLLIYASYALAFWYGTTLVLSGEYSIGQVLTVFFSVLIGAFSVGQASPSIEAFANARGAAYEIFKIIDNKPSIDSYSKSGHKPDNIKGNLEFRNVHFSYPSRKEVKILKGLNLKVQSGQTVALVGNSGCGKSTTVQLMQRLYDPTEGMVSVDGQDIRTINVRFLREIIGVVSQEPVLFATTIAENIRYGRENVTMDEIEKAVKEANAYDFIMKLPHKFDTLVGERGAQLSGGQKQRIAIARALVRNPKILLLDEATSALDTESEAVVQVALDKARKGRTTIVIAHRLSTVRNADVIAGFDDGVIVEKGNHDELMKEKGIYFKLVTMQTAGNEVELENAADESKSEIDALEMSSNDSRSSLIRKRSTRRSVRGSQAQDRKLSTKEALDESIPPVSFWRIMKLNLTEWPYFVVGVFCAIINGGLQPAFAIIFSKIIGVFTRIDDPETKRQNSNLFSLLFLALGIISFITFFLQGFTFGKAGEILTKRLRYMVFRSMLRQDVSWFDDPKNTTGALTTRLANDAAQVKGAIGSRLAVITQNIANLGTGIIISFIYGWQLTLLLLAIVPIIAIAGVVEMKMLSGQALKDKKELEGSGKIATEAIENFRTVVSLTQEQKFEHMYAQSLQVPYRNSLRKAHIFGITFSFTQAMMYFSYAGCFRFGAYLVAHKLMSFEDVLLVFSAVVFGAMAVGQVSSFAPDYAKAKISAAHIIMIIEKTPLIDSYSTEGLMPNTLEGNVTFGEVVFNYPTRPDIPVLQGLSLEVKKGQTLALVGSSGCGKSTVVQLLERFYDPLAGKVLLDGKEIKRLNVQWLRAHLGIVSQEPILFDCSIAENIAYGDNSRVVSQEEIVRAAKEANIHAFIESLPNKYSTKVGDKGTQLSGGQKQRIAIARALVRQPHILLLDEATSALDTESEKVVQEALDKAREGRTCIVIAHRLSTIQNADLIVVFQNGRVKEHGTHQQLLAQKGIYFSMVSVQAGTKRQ

| Compound | selectivity toward one or other of the proteins BCRP or P-gp ([1]; BCRP versus P-gp) | inhibition at 2 μM [1] [%] | inhibition at 10 μM [1] [%] | IC50 [1] | inhibition at 10 μM [2] [%] | inhibition at 10 μM [3] [%] | BCRP/ABCG2 IC50, μM [1] | IC50 [3] [µM] | P-gp/ABCB1 IC50, μM [3] | inhibition at 2 μM [3] [%] |
| --- | --- | --- | --- | --- | --- | --- | --- | --- | --- | --- |
| CC(C)(C)OC(=O)NN(C(=O)N[C@@H](CCCCNC(=O)OCc1ccccc1)C(=O)OC(C)(C)C)c1cccc(C(=O)OCc2ccccc2)c1 [IA.2, tert-Butyl ester of (2S)-6-(benzyloxycarbonylamino)-2-[1-(3′-(benzyloxycarbonyl)phenyl)-2-(tert-butoxycarbonyl)hydrazino-carbonylamino]hexanoic acid] | selective | 86 ± 14 | 112 ± 26 | 1 µM and 1.06 µM | 5 ± 1 | < 50 |  |  |  |  |
| CC(C)(C)OC(=O)N[C@H](CNN(CCCCCCNC(=O)OCc1ccccc1)C(=O)OC(C)(C)C)CC(=O)OCc1ccccc1 [IB.1, Benzyl ester of (3S)-4-[2-(6-benzyloxycarbonylaminohexyl)-2-tert-butoxycarbonylhydrazino]-3-tert-butoxycarbonylaminobutyric acid] |  | 72 ± 1 | 87 ± 27 | 0.9 ± 0.05 µM | 5 ± 1 | 63 ± 5 | micromolar or submicromolar | 1 | micromolar or submicromolar | 70 ± 20 |
| CC(C)(C)OC(=O)N[C@H](CNN(CCCCCCNC(=O)OCc1ccccc1)C(=O)OCc1ccccc1)CC(=O)OCc1ccccc1 [IB.11, Benzyl ester of (3S)-4-[2-benzyloxycarbonyl-2-(6-benzyloxycarbonylaminohexyl)hydrazino]-3-tert-butoxycarbonyl-aminobutyric acid] |  | 92 ± 2 | 104 ± 10 | 0.5 ± 0.05 µM |  |  | micromolar or submicromolar | 0.7 ± 0.1 | micromolar or submicromolar |  |
| CC(C)(C)OC(=O)NN(C(=O)N[C@@H](CCCCNC(=O)OCc1ccccc1)C(=O)OC(C)(C)C)c1ccccc1C(=O)OCc1ccccc1 [IA.1, tert-Butyl ester of (2S)-6-(benzyloxycarbonylamino)-2-[1-(2′-(benzyloxycarbonyl)phenyl)-2-(tert-butoxycarbonyl)hydrazino-carbonylamino]hexanoic acid] |  | 53 ± 10 | 112 ± 6 | 2 µM | 14 ± 3 | 74 ± 1 |  | ≤ 0.5 |  | 70 ± 10 |
